Experimental data published in ChEMBL document CHEMBL1201861, “Genomics of Drug Sensitity in Cancer screening data, Wellcome Trust Sanger Institute”.

What was measured:
Assay in all cases: cells
COR-L23 = format: functional, cell-based; details: Homo sapiens;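 note: cell viability assay measuring how strongly compounds suppress growth of COR-L23 cells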
Description: SANGER: Inhibition of human COR-L23 cell growth in a cell viability assay.

Calu-3 = format: functional, cell-based; details: Homo sapiens;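 note: growth inhibition of human Calu-3 cells, determined with a cell viability assay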
Description: SANGER: Inhibition of human Calu-3 cell growth in a cell viability assay.

Capan-2 = format: functional, cell-based; details: Homo sapiens;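 note: Capan-2 cell growth inhibition, read out with a viability assay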
Description: SANGER: Inhibition of human Capan-2 cell growth in a cell viability assay.

DK-MG = format: functional, cell-based; details: Homo sapiens;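 note: growth inhibition of DK-MG cells, read out with a cell viability assay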
Description: SANGER: Inhibition of human DK-MG cell growth in a cell viability assay.

EC-GI-10 = format: functional, cell-based, Homo sapiens; details: Homo sapiens, EC-GI-10
Description: SANGER: Inhibition of human EC-GI-10 cell growth in a cell viability assay.

EPLC-272H = format: functional, cell-based; details: Homo sapiens
Description: SANGER: Inhibition of human EPLC-272H cell growth in a cell viability assay.

EW-24 = format: functional, cell-based, Homo sapiens; details: Homo sapiens, EW-24;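 note: human EW-24 cancer cell line, growth inhibition read out via a cell viability assay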
Description: SANGER: Inhibition of human EW-24 cell growth in a cell viability assay.

FTC-133 = format: functional, cell-based; details: Homo sapiens
HCC38 = format: functional, cell-based; details: Homo sapiens;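 note: cell viability assay on the human HCC38 cell line, with IC50 marking the concentration that inhibits cell growth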
Description: SANGER: Inhibition of human HCC38 cell growth in a cell viability assay.

HCT-15 = format: functional, cell-based; details: Homo sapiens;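 note: cell viability readout, IC50 reflecting suppression of HCT-15 cell growth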
Description: SANGER: Inhibition of human HCT-15 cell growth in a cell viability assay.

HLE = format: functional, cell-based; details: Homo sapiens;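 note: growth inhibition of human HLE cells, read out by a cell viability assay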
Description: SANGER: Inhibition of human HLE cell growth in a cell viability assay.

HN = format: functional, cell-based; details: Homo sapiens
Description: SANGER: Inhibition of human HN cell growth in a cell viability assay.

HSC-3 = format: functional, cell-based; details: Homo sapiens
Description: SANGER: Inhibition of human HSC-3 cell growth in a cell viability assay.

HT55 = format: functional, cell-based; details: Homo sapiens;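 note: cell viability readout measuring growth inhibition of human HT55 cells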
Description: SANGER: Inhibition of human HT55 cell growth in a cell viability assay.

HuO9 = format: functional, cell-based; details: Homo sapiens;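 note: growth inhibition of HuO9 cells, read out with a cell viability assay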
Description: SANGER: Inhibition of human HuO9 cell growth in a cell viability assay.

KMOE-2 = format: functional, cell-based, Homo sapiens; details: Homo sapiens, KMOE-2;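 note: growth inhibition of human KMOE-2 cells, read out with a cell viability assay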
Description: SANGER: Inhibition of human KMOE-2 cell growth in a cell viability assay.

KU-19-19 = format: functional, cell-based; details: Homo sapiens
Description: SANGER: Inhibition of human KU-19-19 cell growth in a cell viability assay.

LU-135 = format: functional, cell-based; details: Homo sapiens
Description: SANGER: Inhibition of human LU-135 cell growth in a cell viability assay.

MDA-MB-175-VII = format: functional, cell-based; details: Homo sapiens
MG-63 = format: functional, cell-based; details: Homo sapiens;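 note: growth inhibition of human MG-63 cells, read out with a cell viability assay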
Description: SANGER: Inhibition of human MG-63 cell growth in a cell viability assay.

MIA PaCa-2 = format: functional, cell-based; details: Homo sapiens;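 note: growth inhibition of MIA PaCa-2 cells, read out with a cell viability assay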
Description: SANGER: Inhibition of human MIA-PaCa-2 cell growth in a cell viability assay.

MeWo = format: functional, cell-based; details: Homo sapiens;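 note: growth inhibition of MeWo cells, determined by a cell viability readout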
Description: SANGER: Inhibition of human Mewo cell growth in a cell viability assay.

NBsusSR = format: functional, cell-based; details: Homo sapiens;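 note: growth inhibition of the human cell line, read out with a cell viability assay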
Description: SANGER: Inhibition of human NBsusSR cell growth in a cell viability assay.

NCI-H1666 = format: functional, cell-based; details: Homo sapiens;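 note: growth inhibition of the cell line, read out with a cell viability assay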
Description: SANGER: Inhibition of human NCI-H1666 cell growth in a cell viability assay.

RT-112 = format: functional, cell-based; details: Homo sapiens
Description: SANGER: Inhibition of human RT-112 cell growth in a cell viability assay.

SK-MEL-24 = format: functional, cell-based; details: Homo sapiens;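 note: growth inhibition read out by a cell viability assay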
Description: SANGER: Inhibition of human SK-MEL-24 cell growth in a cell viability assay.

SK-MEL-28 = format: functional, cell-based; details: Homo sapiens;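 note: growth inhibition of human SK-MEL-28 cells, read out with a cell viability assay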
Description: SANGER: Inhibition of human SK-MEL-28 cell growth in a cell viability assay.

SW48 = format: functional, cell-based; details: Homo sapiens;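 note: growth inhibition of SW48 cells, read out with a cell viability assay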
Description: SANGER: Inhibition of human SW48 cell growth in a cell viability assay.

T84 = format: functional, cell-based; details: Homo sapiens;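 note: growth inhibition measured with a cell viability readout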
Description: SANGER: Inhibition of human T84 cell growth in a cell viability assay.

TCC-SUP = format: functional, cell-based; details: Homo sapiens;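 note: growth inhibition of TCC-SUP cells, read out with a cell viability assay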
Description: SANGER: Inhibition of human TCCSUP cell growth in a cell viability assay.

23132-87 = format: functional, cell-based; details: Homo sapiens
Description: SANGER: Inhibition of human 23132-87 cell growth in a cell viability assay.

786-0 = format: functional, cell-based; details: Homo sapiens
Description: SANGER: Inhibition of human 786-0 cell growth in a cell viability assay.

BALL-1 = format: functional, cell-based; details: Homo sapiens;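 note: growth inhibition of BALL-1 cells, read out with a cell viability assay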
Description: SANGER: Inhibition of human BALL-1 cell growth in a cell viability assay.

BHT-101 = format: functional, cell-based; details: Homo sapiens
Description: SANGER: Inhibition of human BHT-101 cell growth in a cell viability assay.

CAL-27 = format: functional, cell-based; details: Homo sapiens;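 note: Viability-based readout, IC50 reflecting inhibition of CAL-27 cell growth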
Description: SANGER: Inhibition of human CAL-27 cell growth in a cell viability assay.

CAL-39 = format: functional, cell-based; details: Homo sapiens;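 note: cell viability assay measuring growth inhibition of CAL-39 cells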
Description: SANGER: Inhibition of human CAL-39 cell growth in a cell viability assay.

TI-73 = format: functional, cell-based; details: Homo sapiens;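 note: cell viability assay measuring how much compounds suppress growth of the cultured cell line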
Description: SANGER: Inhibition of human TI-73 cell growth in a cell viability assay.

UO-31 = format: functional, cell-based; details: Homo sapiens;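 note: cell viability assay measuring inhibition of cell growth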
Description: SANGER: Inhibition of human U031 cell growth in a cell viability assay.

CHP-212 = format: functional, cell-based; details: Homo sapiens
Description: SANGER: Inhibition of human CHP-212 cell growth in a cell viability assay.

Structure (SMILES)	IC50 (COR-L23) [nM]	IC50 (Calu-3) [nM]	IC50 (Capan-2) [nM]	IC50 (DK-MG) [nM]	IC50 (EPLC-272H) [nM]	IC50 (FTC-133) [nM]	IC50 (HCC38) [nM]	IC50 (HLE) [nM]	IC50 (HN) [nM]	IC50 (HSC-3) [nM]	IC50 (HT55) [nM]	IC50 (HuO9) [nM]	IC50 (KU-19-19) [nM]	IC50 (LU-135) [nM]	IC50 (MDA-MB-175-VII) [nM]	IC50 (MG-63) [nM]	IC50 (MIA PaCa-2) [nM]	IC50 (MeWo) [nM]	IC50 (NBsusSR) [nM]	IC50 (NCI-H1666) [nM]	also measured
CC1=C(/C=C/C(C)=C/C=C/C(C)=C/C(=O)O)C(C)(C)CCC1 [TRETINOIN]	> 10000	> 10000	> 10000	> 10000	> 10000	> 10000	> 10000	> 10000	> 10000	> 10000	> 10000	> 10000	> 10000	> 10000	> 10000	> 10000	> 10000	> 10000	1450	> 10000	IC50 (EC-GI-10): > 10000 nM; IC50 (EW-24): > 10000 nM; IC50 (HCT-15): > 10000 nM; IC50 (KMOE-2): > 10000 nM; IC50 (RT-112): > 10000 nM; IC50 (SK-MEL-24): > 10000 nM; IC50 (SK-MEL-28): > 10000 nM; IC50 (SW48): > 10000 nM; IC50 (T84): > 10000 nM; IC50 (TCC-SUP): > 10000 nM; IC50 (23132-87): > 10000 nM; IC50 (786-0): > 10000 nM; IC50 (BALL-1): > 10000 nM; IC50 (BHT-101): > 10000 nM; IC50 (CAL-27): > 10000 nM; IC50 (CAL-39): > 10000 nM; IC50 (TI-73): > 10000 nM; IC50 (UO-31): > 10000 nM; IC50 (CHP-212): > 10000 nM
CC1(C)CCC(c2ccc(Cl)cc2)=C(CN2CCN(c3ccc(C(=O)NS(=O)(=O)c4ccc(N[C@H](CCN5CCOCC5)CSc5ccccc5)c(S(=O)(=O)C(F)(F)F)c4)cc3)CC2)C1 [NAVITOCLAX]	1800	1710	> 2000	> 2000	> 2000	> 2000	802	> 2000	> 2000	1960	> 2000	267	> 2000	186	> 2000	> 2000	> 2000	> 2000	> 2000	> 2000	IC50 (RT-112): > 2000 nM; IC50 (SK-MEL-24): > 2000 nM; IC50 (SK-MEL-28): > 2000 nM; IC50 (SW48): > 2000 nM; IC50 (T84): > 2000 nM; IC50 (TCC-SUP): > 2000 nM; IC50 (786-0): > 2000 nM; IC50 (BALL-1): > 2000 nM; IC50 (BHT-101): > 2000 nM; IC50 (CAL-27): > 2000 nM; IC50 (CAL-39): > 2000 nM; IC50 (TI-73): > 2000 nM; IC50 (UO-31): > 2000 nM; IC50 (CHP-212): > 2000 nM
NC(=O)c1ccc(N(C(N)=O)c2c(F)cccc2F)nc1-c1ccc(F)cc1F [VX-702]	> 2000	> 2000	> 2000	> 2000	> 2000	> 2000	> 2000	> 2000	> 2000	> 2000	> 2000	> 2000	> 2000	> 2000	> 2000	> 2000	> 2000	> 2000	> 2000	> 2000	IC50 (EC-GI-10): > 2000 nM; IC50 (EW-24): > 2000 nM; IC50 (HCT-15): > 2000 nM; IC50 (KMOE-2): > 2000 nM; IC50 (RT-112): > 2000 nM; IC50 (SK-MEL-24): > 2000 nM; IC50 (SK-MEL-28): > 2000 nM; IC50 (SW48): > 2000 nM; IC50 (T84): > 2000 nM; IC50 (TCC-SUP): > 2000 nM; IC50 (23132-87): > 2000 nM; IC50 (786-0): > 2000 nM; IC50 (BALL-1): > 2000 nM; IC50 (BHT-101): > 2000 nM; IC50 (CAL-27): > 2000 nM; IC50 (CAL-39): > 2000 nM; IC50 (TI-73): > 2000 nM; IC50 (UO-31): > 2000 nM; IC50 (CHP-212): > 2000 nM
NC(=O)Nc1cc(-c2cccc(F)c2)sc1C(=O)N[C@H]1CCCNC1 [AZD-7762]	403	> 2000	> 2000	> 2000	221	303	750	> 2000	846	486	1610	298	> 2000	> 2000	> 2000	> 2000	375	304	318	> 2000	IC50 (EC-GI-10): 1780 nM; IC50 (EW-24): 289 nM; IC50 (HCT-15): > 2000 nM; IC50 (KMOE-2): 1110 nM; IC50 (RT-112): 499 nM; IC50 (SK-MEL-24): > 2000 nM; IC50 (SK-MEL-28): > 2000 nM; IC50 (SW48): 792 nM; IC50 (T84): > 2000 nM; IC50 (TCC-SUP): > 2000 nM; IC50 (23132-87): 683 nM; IC50 (786-0): 388 nM; IC50 (BALL-1): > 2000 nM; IC50 (BHT-101): 1150 nM; IC50 (CAL-27): > 2000 nM; IC50 (CAL-39): > 2000 nM; IC50 (TI-73): 209 nM; IC50 (UO-31): 482 nM; IC50 (CHP-212): 198 nM
